Assay results reported in ChEMBL document CHEMBL1201862, “PubChem BioAssay data set” (2004).
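Compound exposure: 48 hours, 5 concentrations, 96-well plates. GI50: concentration for 50% inhibition of growth.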 Activity calls are given as the source filed them. Rule as the data show it: active = GI50 up to about 1.1 µM and inactive = higher.

Tests used:
Assay in all cases: NCI-60 cell line screen, 48 h
[1] = tested on: HL-60
[2] = tested on: KM12
[3] = tested on: SN12C
[4] = tested on: IGROV-1
[5] = tested on: UACC-257
[6] = tested on: OVCAR-5
[7] = tested on: HCT-15
[8] = tested on: HT-29
[9] = tested on: SR
[10] = tested on: A498
[11] = tested on: ACHN
[12] = tested on: HCT-116
[13] = tested on: LOX IMVI
[14] = tested on: OVCAR-4
[15] = tested on: PC-3
[16] = tested on: SW-620
[17] = tested on: EKVX
[18] = tested on: A549
[19] = tested on: NCI-H23
[20] = tested on: BT-549
[21] = tested on: K562
[22] = tested on: SK-MEL-28
[23] = tested on: M14
[24] = tested on: Hs-578T
[25] = tested on: SF-539
[26] = tested on: DU-145
[27] = tested on: MDA-MB-435
[28] = tested on: MDA-MB-231
[29] = tested on: MDA-N
[30] = tested on: NCI-H226
[31] = tested on: COLO 205
[32] = tested on: HOP-92
[33] = tested on: RXF 393
[34] = tested on: 786-0
[35] = tested on: NCI-H522
[36] = tested on: OVCAR-3
[37] = tested on: SK-MEL-2
[38] = tested on: SNB-75
[39] = tested on: NCI-H460
[40] = tested on: T47D
[41] = tested on: CCRF-CEM
[42] = tested on: Malme-3M
[43] = tested on: UO-31
[44] = tested on: MCF7
[45] = tested on: TK-10
[46] = tested on: U-251
[47] = tested on: SK-OV-3
[48] = tested on: OVCAR-8
[49] = tested on: HOP-62
[50] = tested on: SK-MEL-5
[51] = tested on: MOLT-4
[52] = tested on: SF-295
[53] = tested on: RPMI-8226
[54] = tested on: CAKI-1
[55] = tested on: HCC 2998
[56] = tested on: SF-268
[57] = tested on: NCI/ADR-RES
[58] = tested on: UACC-62
[59] = tested on: SNB-19

Compound: COc1ccc(C(=O)Cn2c(C(C)=O)nc3ccccc32)cc1
- GI50 [1]: 3.41 µM (inactive)
- GI50 [2]: 7.1 µM (inactive)
- GI50 [3]: 16.4 µM (inactive)
- GI50 [4]: 6.73 µM (inactive)
- GI50 [5]: 30.4 µM (inactive)
- GI50 [6]: 44.4 µM (inactive)
- GI50 [7]: 6.35 µM
- GI50 [8]: 23.4 µM (inactive)
- GI50 [9]: 4.92 µM (inactive)
- GI50 [10]: 67 µM (inactive)
- GI50 [11]: 8.59 µM (inactive)
- GI50 [12]: 6.15 µM (inactive)
- GI50 [13]: 2.91 µM (inactive)
- GI50 [14]: 14.2 µM (inactive)
- GI50 [15]: 6.98 µM (inactive)
- GI50 [16]: 5.56 µM (inactive)
- GI50 [17]: 76.9 µM (inactive)
- GI50 [18]: 5.31 µM (inactive)
- GI50 [19]: 13.2 µM (inactive)
- GI50 [20]: 8.45 µM (inactive)
- GI50 [21]: 4.4 µM (inactive)
- GI50 [22]: > 46.7 µM (inactive)
- GI50 [23]: 17.5 µM (inactive)
- GI50 [24]: 23.2 µM (inactive)
- GI50 [25]: > 53.5 µM (inactive)
- GI50 [26]: 30.7 µM (inactive)
- GI50 [27]: 13.5 µM (inactive)
- GI50 [28]: 4.82 µM (inactive)
- GI50 [29]: 10.7 µM (inactive)
- GI50 [30]: > 74 µM (inactive)
- GI50 [31]: 18.3 µM (inactive)
- GI50 [32]: 12.7 µM (inactive)
- GI50 [33]: > 56.4 µM (inactive)
- GI50 [34]: 6.59 µM (inactive)
- GI50 [35]: 3.86 µM (inactive)
- GI50 [36]: 6.31 µM (inactive)
- GI50 [37]: 12.7 µM (inactive)
- GI50 [38]: > 100 µM (inactive)
- GI50 [39]: 4.21 µM (inactive)
- GI50 [40]: 5.28 µM (inactive)
- GI50 [41]: 5.93 µM (inactive)
- GI50 [42]: 41 µM (inactive)
- GI50 [43]: 11.8 µM (inactive)
- GI50 [44]: 4.58 µM (inactive)
- GI50 [45]: > 76.6 µM (inactive)
- GI50 [46]: 3.74 µM (inactive)
- GI50 [47]: 14.7 µM (inactive)
- GI50 [48]: 3.8 µM (inactive)
- GI50 [49]: 12.1 µM (inactive)
- GI50 [50]: 4.15 µM (inactive)
- GI50 [51]: 4.98 µM (inactive)
- GI50 [52]: 13.1 µM (inactive)
- GI50 [53]: 14.6 µM (inactive)
- GI50 [54]: 7.21 µM (inactive)
- GI50 [55]: 29.9 µM (inactive)
- GI50 [56]: > 64.9 µM (inactive)
- GI50 [57]: 3.55 µM (inactive)
- GI50 [58]: 6.89 µM (inactive)
- GI50 [59]: > 34.1 µM (inactive)
